Consider 13 compounds from ChEMBL document CHEMBL5465560, “Selectivity Literature for EUbOPEN Chemogenomic Library” (2024).

Where only a bound is given, the exact number is not on record here.

Assay [1] addresses Serine/threonine-protein kinase MRCK alpha (Homo sapiens) (UniProt Q5VT25). Put plainly: Selectivity interaction (KinomeScan (DiscoverX)) EUB0001079a CDC42BPA. The conditions noted are these: at 1 µM.
Assay [2] addresses Serine/threonine-protein kinase PRP4 homolog (Homo sapiens) (UniProt Q13523). Put plainly: Selectivity interaction (KinomeScan (DiscoverX)) EUB0001079a PRPF4B. The conditions noted are these: at 1 µM.
In assay [3] the target is Histone-lysine N-methyltransferase SETDB1 (Homo sapiens) (UniProt Q15047). Put plainly: Selectivity interaction (Methyltransferase screen (Scintillation proximity assays)) EUB0000255b SETDB1.
The target of assay [4] is Tyrosine-protein kinase Srms (Homo sapiens) (UniProt Q9H3Y6). Put plainly: Selectivity interaction (KinomeScan (DiscoverX)) EUB0001049a SRMS. The conditions noted are these: at 1 µM.
Assay [5] has as its target Ephrin type-A receptor 5 (Homo sapiens) (UniProt P54756). Put plainly: Selectivity interaction (KinomeScan (DiscoverX)) EUB0000655a EPHA5. The conditions noted are these: at 10 µM.
Assay [6] addresses Dual specificity protein kinase CLK1 (Homo sapiens, UniProt P49759). Put plainly: Selectivity interaction (Enzymatic assay) EUB0001550a CLK1.
For assay [7], the target named is Nociceptin receptor (Homo sapiens) (UniProt P41146). Put plainly: Selectivity interaction (Eurofins CEREP Diversity Profile (receptors and ion channels)) EUB0000279b OPRL1. The conditions noted are these: at 10 µM.
Chain of Nociceptin receptor (Homo sapiens) (P41146 whole entry): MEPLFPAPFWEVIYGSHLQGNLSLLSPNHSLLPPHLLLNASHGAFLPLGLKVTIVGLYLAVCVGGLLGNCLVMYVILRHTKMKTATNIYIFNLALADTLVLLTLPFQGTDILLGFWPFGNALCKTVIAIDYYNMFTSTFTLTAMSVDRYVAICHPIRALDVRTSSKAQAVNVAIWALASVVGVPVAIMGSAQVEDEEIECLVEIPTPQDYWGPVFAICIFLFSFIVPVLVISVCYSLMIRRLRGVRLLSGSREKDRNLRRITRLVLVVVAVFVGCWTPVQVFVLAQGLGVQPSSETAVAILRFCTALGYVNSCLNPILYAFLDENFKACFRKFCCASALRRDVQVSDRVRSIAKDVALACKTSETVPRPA
The target of assay [8] is Protein arginine N-methyltransferase 6 (Homo sapiens, UniProt Q96LA8). Put plainly: Selectivity interaction (Transferase panel (protein, RNA, and DNA methyltransferases. and EP300 (acetyltransferase))) EUB0000270b PRMT6.
Chain of Protein arginine N-methyltransferase 6 (Q96LA8 whole entry, looked up): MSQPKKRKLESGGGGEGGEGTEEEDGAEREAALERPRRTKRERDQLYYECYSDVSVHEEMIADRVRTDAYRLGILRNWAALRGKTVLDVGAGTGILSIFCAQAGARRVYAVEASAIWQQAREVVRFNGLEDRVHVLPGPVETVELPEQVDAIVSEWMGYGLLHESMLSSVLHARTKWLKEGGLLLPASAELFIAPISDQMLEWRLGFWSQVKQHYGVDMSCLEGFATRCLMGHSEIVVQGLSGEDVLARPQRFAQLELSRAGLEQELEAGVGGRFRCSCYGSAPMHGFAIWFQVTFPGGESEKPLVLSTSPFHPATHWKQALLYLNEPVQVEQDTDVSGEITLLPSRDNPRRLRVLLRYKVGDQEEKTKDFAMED
In assay [9] the target is Serine/threonine-protein kinase MARK1 (Homo sapiens) (UniProt Q9P0L2). Put plainly: Selectivity interaction (KinomeScan (DiscoverX)) EUB0000666a MARK1. The conditions noted are these: at 10 µM.
The target of assay [10] is T1, Phosphatidylinositol 5-phosphate 4-kinase type-2 beta (Homo sapiens) (UniProt P78356).
T1 sequence (whole entry): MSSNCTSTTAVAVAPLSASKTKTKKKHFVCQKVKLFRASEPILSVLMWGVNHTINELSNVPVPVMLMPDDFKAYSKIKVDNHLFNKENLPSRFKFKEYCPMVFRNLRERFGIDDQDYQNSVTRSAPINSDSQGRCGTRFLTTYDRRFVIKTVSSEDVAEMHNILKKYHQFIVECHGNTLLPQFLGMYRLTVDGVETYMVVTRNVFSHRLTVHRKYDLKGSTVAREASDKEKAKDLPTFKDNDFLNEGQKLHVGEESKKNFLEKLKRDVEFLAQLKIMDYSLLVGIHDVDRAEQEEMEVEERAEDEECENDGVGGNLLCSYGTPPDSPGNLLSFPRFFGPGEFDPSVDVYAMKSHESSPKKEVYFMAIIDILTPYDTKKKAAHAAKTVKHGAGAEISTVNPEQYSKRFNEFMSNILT
Put plainly: Selectivity interaction (KinomeScan (DiscoverX)) EUB0000666a PIP4K2B. The conditions noted are these: at 10 µM.

The target of assay [11] is Cyclin-dependent kinase 14/Cyclin-Y (Homo sapiens) (UniProt O94921+Q8ND76). Put plainly: Selectivity interaction (LanthaScreen Eu Kinase Binding Assay) EUB0001632a CDK14. The conditions noted are these: at 10 µM. The assay is classed as protein-complex assay. In general terms: TR-FRET usually uses a lanthanide donor and a delayed reading to cut background.
Assay [12] concerns the target Death-associated protein kinase 1 (Homo sapiens, UniProt P53355). Put plainly: Selectivity interaction (Adapta Assay) EUB0001632a DAPK1. The conditions noted are these: at 10 µM.
Assay [13] addresses T2, Serine/threonine-protein kinase Sgk3 (Homo sapiens) (UniProt Q96BR1).
T2 sequence (whole entry): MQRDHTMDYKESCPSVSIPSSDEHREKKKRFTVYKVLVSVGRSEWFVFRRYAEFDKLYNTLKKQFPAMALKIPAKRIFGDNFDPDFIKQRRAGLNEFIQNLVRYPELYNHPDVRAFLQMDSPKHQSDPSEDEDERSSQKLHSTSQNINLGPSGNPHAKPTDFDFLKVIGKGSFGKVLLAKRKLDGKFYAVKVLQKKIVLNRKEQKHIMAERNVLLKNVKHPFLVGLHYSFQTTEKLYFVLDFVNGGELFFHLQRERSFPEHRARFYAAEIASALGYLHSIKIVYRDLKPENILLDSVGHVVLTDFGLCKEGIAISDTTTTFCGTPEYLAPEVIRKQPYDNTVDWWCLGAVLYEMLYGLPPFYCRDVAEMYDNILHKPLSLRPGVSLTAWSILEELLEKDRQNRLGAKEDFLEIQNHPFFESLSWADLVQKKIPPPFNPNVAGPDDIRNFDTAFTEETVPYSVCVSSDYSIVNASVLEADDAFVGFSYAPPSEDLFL
Put plainly: Selectivity interaction (ActivX KiNativ screen (kinase selectivity in THP-1 cell lysates)) EUB0000639a SGK3. The conditions noted are these: lysate, at 5 µM. The assay is classed as subcellular.

For assay [14], the target named is Tyrosine-protein kinase JAK2 (Homo sapiens, UniProt O60674). Put plainly: Selectivity interaction (KinomeScan (DiscoverX)) EUB0000229b JAK2. The conditions noted are these: at 10 µM.
Chain of Tyrosine-protein kinase JAK2 (O60674 whole entry): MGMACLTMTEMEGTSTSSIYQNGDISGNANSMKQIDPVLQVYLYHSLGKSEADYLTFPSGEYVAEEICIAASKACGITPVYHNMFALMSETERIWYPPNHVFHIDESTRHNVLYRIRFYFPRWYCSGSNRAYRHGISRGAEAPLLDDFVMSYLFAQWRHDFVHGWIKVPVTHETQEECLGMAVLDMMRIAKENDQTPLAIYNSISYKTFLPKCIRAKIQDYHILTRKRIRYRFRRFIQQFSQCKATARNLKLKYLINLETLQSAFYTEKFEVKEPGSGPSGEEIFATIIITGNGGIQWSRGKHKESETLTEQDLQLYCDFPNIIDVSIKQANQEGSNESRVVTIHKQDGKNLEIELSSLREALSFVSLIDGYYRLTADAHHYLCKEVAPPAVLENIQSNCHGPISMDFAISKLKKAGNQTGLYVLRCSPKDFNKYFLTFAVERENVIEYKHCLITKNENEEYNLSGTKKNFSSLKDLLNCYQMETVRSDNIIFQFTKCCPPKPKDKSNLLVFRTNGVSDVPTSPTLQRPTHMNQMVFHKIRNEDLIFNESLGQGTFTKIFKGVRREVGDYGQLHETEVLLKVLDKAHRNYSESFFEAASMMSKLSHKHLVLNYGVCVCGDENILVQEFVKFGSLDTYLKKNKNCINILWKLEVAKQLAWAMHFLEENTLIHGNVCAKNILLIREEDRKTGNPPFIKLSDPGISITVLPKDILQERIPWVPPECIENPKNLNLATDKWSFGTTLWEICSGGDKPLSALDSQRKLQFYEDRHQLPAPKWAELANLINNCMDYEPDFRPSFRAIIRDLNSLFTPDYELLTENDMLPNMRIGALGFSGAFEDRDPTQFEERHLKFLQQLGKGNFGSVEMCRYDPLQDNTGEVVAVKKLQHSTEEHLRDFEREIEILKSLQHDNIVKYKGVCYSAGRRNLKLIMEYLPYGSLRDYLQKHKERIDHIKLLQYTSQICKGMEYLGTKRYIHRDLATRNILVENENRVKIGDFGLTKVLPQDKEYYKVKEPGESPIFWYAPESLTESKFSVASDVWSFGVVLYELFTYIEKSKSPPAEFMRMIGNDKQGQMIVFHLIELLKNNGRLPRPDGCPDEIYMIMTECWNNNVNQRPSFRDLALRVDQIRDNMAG
Assay [15] has as its target Protein-tyrosine kinase 2-beta (Homo sapiens) (UniProt Q14289). Put plainly: Selectivity interaction (KinomeScan (DiscoverX)) EUB0000595a PTK2B. The conditions noted are these: at 10 µM.
Assay [16] deals with T3, Rhodopsin kinase GRK7 (Homo sapiens) (UniProt Q8WTQ7).
T3 sequence (whole entry): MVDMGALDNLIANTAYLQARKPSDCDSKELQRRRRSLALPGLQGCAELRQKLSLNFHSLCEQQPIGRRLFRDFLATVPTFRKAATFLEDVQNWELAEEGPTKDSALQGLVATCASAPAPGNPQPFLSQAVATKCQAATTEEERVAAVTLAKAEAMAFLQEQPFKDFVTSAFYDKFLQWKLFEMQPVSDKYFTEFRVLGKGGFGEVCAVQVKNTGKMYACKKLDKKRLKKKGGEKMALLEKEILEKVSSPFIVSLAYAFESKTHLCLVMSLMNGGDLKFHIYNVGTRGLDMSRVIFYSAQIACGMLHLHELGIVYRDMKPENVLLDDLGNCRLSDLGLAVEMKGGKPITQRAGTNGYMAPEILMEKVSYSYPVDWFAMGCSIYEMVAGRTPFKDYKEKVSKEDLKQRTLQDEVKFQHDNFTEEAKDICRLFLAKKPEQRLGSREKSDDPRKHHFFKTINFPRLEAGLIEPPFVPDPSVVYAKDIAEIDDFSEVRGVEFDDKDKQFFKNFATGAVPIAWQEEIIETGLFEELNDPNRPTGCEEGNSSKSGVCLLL
Put plainly: Selectivity interaction (KinomeScan (DiscoverX)) EUB0001619a GRK7. The conditions noted are these: at 1 µM.

The target in assay [17] is Dual specificity mitogen-activated protein kinase kinase 1 (Homo sapiens, UniProt Q02750). Put plainly: Selectivity interaction (ActivX KiNativ screen (ex vivo kinase selectivity in human PBMCs)) EUB0001619a MAP2K1. The assay is classed as cell-based. The conditions noted are these: PBMC, at 1 µM.
Assay [18] addresses Serine/threonine-protein kinase PLK1 (Homo sapiens, UniProt P53350). Put plainly: Selectivity interaction (KinomeScan (DiscoverX)) EUB0001619a PLK1. The conditions noted are these: at 1 µM.

Chain of Serine/threonine-protein kinase MRCK alpha (Homo sapiens) (Q5VT25 whole entry): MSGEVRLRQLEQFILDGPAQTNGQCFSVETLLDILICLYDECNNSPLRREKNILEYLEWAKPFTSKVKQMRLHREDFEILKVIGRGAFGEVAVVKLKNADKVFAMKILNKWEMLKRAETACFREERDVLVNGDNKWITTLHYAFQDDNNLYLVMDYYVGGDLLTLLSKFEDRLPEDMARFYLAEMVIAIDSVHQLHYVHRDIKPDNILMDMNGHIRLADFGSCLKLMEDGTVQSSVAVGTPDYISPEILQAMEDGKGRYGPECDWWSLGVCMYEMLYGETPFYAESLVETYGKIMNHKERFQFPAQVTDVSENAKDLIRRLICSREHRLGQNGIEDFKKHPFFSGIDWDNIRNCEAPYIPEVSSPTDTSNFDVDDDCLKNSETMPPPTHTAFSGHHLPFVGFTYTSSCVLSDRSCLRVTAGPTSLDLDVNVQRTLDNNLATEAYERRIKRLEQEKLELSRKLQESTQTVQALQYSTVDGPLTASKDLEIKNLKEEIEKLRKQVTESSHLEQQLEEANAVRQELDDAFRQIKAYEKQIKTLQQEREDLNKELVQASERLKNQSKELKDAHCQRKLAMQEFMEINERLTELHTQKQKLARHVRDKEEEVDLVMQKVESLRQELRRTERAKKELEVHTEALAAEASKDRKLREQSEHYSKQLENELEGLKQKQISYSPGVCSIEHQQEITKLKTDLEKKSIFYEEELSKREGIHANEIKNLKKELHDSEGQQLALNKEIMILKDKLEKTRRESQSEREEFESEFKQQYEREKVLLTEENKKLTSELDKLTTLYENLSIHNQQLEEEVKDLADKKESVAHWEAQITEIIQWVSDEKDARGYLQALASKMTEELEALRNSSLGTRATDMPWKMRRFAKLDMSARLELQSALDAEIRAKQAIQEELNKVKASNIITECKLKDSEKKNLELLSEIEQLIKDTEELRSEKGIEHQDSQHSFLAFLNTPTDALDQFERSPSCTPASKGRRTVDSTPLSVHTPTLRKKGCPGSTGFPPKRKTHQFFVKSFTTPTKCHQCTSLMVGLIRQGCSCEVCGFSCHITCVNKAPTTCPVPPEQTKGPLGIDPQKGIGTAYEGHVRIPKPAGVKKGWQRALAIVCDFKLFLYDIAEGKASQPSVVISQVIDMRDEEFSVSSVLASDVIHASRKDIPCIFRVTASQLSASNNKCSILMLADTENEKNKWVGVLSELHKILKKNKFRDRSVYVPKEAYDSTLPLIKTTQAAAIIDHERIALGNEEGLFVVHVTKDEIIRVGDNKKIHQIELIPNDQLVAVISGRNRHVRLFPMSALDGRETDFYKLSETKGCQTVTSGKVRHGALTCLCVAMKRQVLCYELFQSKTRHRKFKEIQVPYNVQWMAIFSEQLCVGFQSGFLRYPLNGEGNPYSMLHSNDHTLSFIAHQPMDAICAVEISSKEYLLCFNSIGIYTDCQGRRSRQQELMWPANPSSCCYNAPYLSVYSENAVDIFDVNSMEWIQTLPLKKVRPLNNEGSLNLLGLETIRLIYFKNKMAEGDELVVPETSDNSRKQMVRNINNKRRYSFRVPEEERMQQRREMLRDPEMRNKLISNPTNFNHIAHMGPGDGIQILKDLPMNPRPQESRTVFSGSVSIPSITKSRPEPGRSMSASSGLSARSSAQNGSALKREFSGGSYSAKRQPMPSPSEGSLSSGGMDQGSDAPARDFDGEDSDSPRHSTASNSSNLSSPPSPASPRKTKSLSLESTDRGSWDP
Chain of Serine/threonine-protein kinase PRP4 homolog (Homo sapiens) (Q13523 whole entry): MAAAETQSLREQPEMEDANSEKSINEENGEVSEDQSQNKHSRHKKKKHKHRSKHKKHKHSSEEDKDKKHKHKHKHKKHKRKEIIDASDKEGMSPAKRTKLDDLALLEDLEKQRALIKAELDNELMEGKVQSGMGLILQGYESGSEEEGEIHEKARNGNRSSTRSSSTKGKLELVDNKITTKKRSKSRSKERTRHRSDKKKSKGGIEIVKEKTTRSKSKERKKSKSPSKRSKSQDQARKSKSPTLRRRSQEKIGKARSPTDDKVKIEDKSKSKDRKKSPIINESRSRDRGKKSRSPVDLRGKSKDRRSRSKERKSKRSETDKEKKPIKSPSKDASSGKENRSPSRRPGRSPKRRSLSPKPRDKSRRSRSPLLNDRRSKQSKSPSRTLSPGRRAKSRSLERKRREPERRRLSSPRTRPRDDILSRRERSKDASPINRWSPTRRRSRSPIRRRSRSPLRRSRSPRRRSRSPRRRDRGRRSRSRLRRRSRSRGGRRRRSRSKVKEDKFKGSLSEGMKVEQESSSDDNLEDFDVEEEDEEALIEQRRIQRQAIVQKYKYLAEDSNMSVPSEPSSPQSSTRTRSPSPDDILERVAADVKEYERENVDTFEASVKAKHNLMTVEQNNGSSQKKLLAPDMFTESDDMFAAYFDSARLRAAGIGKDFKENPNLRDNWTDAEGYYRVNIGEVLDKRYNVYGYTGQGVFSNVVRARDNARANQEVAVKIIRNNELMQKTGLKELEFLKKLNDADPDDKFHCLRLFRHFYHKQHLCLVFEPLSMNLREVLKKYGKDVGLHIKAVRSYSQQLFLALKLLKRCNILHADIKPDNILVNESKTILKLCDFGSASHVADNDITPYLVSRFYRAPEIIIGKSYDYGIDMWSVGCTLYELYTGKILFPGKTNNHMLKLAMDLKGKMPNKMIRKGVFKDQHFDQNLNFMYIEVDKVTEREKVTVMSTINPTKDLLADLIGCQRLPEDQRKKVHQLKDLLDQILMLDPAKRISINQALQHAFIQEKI
Chain of Dual specificity protein kinase CLK1 (P49759 whole entry): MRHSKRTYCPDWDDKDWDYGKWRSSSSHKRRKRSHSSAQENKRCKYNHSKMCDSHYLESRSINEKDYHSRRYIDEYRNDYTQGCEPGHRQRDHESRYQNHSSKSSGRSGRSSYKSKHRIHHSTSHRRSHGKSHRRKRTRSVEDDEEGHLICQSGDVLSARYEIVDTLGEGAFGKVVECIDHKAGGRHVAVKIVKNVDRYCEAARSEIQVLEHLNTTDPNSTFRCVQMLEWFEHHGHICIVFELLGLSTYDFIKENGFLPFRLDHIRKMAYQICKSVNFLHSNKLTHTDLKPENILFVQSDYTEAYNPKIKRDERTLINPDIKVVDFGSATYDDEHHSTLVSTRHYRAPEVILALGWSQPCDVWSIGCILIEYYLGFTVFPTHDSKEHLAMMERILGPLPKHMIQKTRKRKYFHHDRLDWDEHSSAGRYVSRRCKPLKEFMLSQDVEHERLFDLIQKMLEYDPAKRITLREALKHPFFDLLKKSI

Turning to `Nc1cnc(N2CCc3cc(S(=O)(=O)Nc4c(F)cc(Cl)cc4F)cc(N4CCCC4=O)c32)nc1` [TP-020n], the % of control was determined as 100% in [1] and 76% in assay [2].
For the compound `COCCN1CCC(c2cc(CN(C)C(=O)c3cccc(Oc4ccccc4)c3)ccn2)CC1`, the % activity was above 95% in assay [3] (at 1 µM) and above 90% in [3] (at 10 µM).
Consider `COc1cc(Nc2nc(C)cc(-c3cnn4nc(OC)ccc34)n2)cc(C(F)(F)F)c1`, for which the % of control in [4] turned out to be 66%.
`CN(C)CCOc1ccc(-c2nc(-c3ccncc3)c(-c3ccc4c(c3)CC/C4=N\O)[nH]2)cc1` showed a % of control in assay [5] of 99%.
A word on the IC50: it is the concentration needed to halve the response being measured. A low value points to greater potency in that assay. Turning to `CN(C)CC#Cc1ccc2[nH]c3c(c2c1)-c1nc(N)ncc1CCC3`, the midpoint of inhibition in assay [6], the IC50, lay at 0.42 µM.
Turning to `CC(=O)c1cc(-c2ccccc2OCC2CC2)c2ncccn12`, the % of control in assay [7] stood at 88%.
On to `Cc1cc(CN)cc(C)c1-c1ncn(C)c1-c1cncn1C`, for which the values for the % activity in [8] (at 1 µM) and in assay [8] (at 10 µM) were above 90% and above 80%, respectively.
As for `O=C(NOC[C@H](O)CO)c1ccc(F)c(F)c1Nc1ccc(I)cc1F`, the % of control in assay [9] and in assay [10] was 100% throughout.
Regarding `Cn1cc(-n2cnc3c(NCc4nc5cc(Cl)c(Cl)cc5[nH]4)nc(N4CCOCC4)nc32)cn1`, the % of inhibition in assay [11] is -159%; in [12], 34%.
For the compound `CC[C@@H]1[C@H](F)C(=O)N[C@@H]1COc1nccc2cc(C(N)=O)c(OC)cc12` [ZIMLOVISERTIB], the % of inhibition in assay [13] is -1.4%.
`COc1cc(N(C)c2ccnc3ccc(C(F)(F)F)cc23)cc(OC)c1OC` returned a % binding in assay [14] of 97%.
Take `COCC(=O)NC/C=C/c1ccc2ncnc(Nc3ccc(Oc4ccc(C)nc4)c(C)c3)c2c1` [CP-724714]: in assay [15], the % of control was found to be 80%.
In the case of `N#Cc1cccc(-c2c[nH]c3ncnc(N4CCOCC4)c23)c1`, the results for the % of control in assay [16] and in [18] were 37% and 100%, respectively. The % of inhibition in assay [17] came out at 14%.
